These results are taken from US11492385B2, “Long-acting co-agonists of the glucagon and GLP-1 receptors” (Merck Sharp & Dohme Corp., priority 2015, dated 2022).

Starred links: 1 amine or outer side, 2 acyl side, 3 side chain; linkers in the order of their positions; H or OH if unused. Non-standard residues stand in square brackets, D forms with d. Residues, ends and D or L forms follow the SMILES beside them. Groups on a side chain read outwards from the residue. *: point of attachment. Phe(4-CH2NH2) = NCc1ccc(C[C@H](N)C(=O)O)cc1; C18 diacid = O=C(O)CCCCCCCCCCCCCCCCC(=O)*; C16 diacid = O=C(O)CCCCCCCCCCCCCCC(=O)*; γGlu = O=C(O)[C@H](CCC(=O)[*:2])N[*:1]; Met(O2) = CS(=O)(=O)CC[C@H](N)C(=O)O; αMeD = C[C@](N)(CC(=O)O)C(=O)O; AEEA = NCCOCCOCC(=O)O; Aib = CC(C)(N)C(=O)O

The target of assay [1] is T1, human GCGR (Homo sapiens, UniProt P47871).
T1 construct: expressed in transfected cells; kept under Blasticidin and Hygromycin selection
T1 sequence (P47871 26-477): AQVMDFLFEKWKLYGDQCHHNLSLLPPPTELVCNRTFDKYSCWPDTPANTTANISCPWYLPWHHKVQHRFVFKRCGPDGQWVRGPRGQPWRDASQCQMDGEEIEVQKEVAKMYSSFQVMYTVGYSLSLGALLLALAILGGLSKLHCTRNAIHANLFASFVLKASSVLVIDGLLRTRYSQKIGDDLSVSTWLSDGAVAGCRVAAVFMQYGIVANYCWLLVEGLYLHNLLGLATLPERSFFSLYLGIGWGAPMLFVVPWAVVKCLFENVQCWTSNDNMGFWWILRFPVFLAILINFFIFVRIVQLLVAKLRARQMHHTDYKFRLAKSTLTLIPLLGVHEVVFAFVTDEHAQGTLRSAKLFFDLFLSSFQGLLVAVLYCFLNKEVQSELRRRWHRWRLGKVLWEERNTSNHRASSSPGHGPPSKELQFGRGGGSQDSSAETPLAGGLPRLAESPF
In words: cAMP activity assay, cells expressing human GCGR. The class given is cell-based. Conditions: for EC50: cAMP production, cells expressing human GCGR, assay buffer with or without 20% human serum (not stated which), read-out: GCGR EC50 human; for hGCGR/hGLP1R (hTone): ratio of human GCGR EC50 to human GLP1R EC50. The protocol:
(§1) Activity of the peptides at the Glucagon receptor (GCGR) and GLP-1 receptor (GLP1R) was measured in a cAMP activity assay. Peptides were dissolved in 100% DMSO and serially diluted to generate 10 point titrations. The peptide solutions were then transferred into 384-well assay plates (150 nL/well). […] Production of cAMP was determined using […] kits (DiscoverX) following manufacturer protocol. The plates were incubated for overnight at room temperature in the dark. Luminescence was measured using an EnVision Multilabel plate reader (Perkin Elmer). Native GLP-1 and Glucagon (Bachem) are used as control peptides. EC50 values were calculated using uses a 4 parameter logistic fit based on the Levenberg-Marquardt algorithm.

Assay [2] addresses T2, human GLP1R (Homo sapiens, UniProt P43220).
T2 construct: expressed in transfected cells; kept under Blasticidin and Hygromycin selection
As to the kind of experiment: cAMP activity assay, cells expressing human GLP1R. It counts as cell-based. As to conditions: cAMP production, assay buffer with or without 20% human serum (not stated which). The protocol: as §1

T2 sequence (P43220 24-463): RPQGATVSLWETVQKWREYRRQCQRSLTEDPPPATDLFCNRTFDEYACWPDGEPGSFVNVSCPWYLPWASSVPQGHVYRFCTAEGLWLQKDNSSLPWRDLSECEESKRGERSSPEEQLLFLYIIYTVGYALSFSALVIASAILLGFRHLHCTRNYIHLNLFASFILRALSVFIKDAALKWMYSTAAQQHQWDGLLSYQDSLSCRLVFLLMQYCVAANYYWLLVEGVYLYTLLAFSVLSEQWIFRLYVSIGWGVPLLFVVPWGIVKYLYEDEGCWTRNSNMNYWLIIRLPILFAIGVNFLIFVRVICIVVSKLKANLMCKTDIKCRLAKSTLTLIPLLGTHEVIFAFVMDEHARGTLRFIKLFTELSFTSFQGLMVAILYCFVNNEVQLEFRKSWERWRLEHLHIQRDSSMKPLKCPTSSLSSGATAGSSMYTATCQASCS

What is called EC50 is the concentration at which the effect is half-maximal. For `CC(C)C[C@H](NC(=O)[C@H](Cc1ccc(O)cc1)NC(=O)[C@H](CCCCN)NC(=O)[C@H](CO)NC(=O)[C@H](Cc1ccc(O)cc1)NC(=O)[C@H](CC(=O)O)NC(=O)[C@H](CO)NC(=O)[C@@H](NC(=O)[C@H](Cc1ccccc1)NC(=O)[C@@H](NC(=O)CNC(=O)[C@H](CCC(N)=O)NC(=O)C(C)(C)NC(=O)[C@@H](N)Cc1c[nH]cn1)[C@@H](C)O)[C@@H](C)O)C(=O)N[C@@H](CC(=O)O)C(=O)N[C@@H](C)C(=O)N[C@@H](CCCNC(=N)N)C(=O)N[C@@H](C)C(=O)N[C@@H](C)C(=O)N[C@@H](CCC(N)=O)C(=O)N[C@@H](Cc1ccc(CNC(=O)COCCOCCNC(=O)COCCOCCNC(=O)CC[C@H](NC(=O)CCCCCCCCCCCCCCCCC(=O)O)C(=O)O)cc1)C(=O)N[C@@H](Cc1ccccc1)C(=O)N[C@H](C(=O)N[C@@H](CCC(N)=O)C(=O)N[C@@H](Cc1c[nH]c2ccccc12)C(=O)N[C@@H](CC(C)C)C(=O)N[C@@H](CC(C)C)C(=O)N[C@@H](CC(=O)O)C(=O)N[C@H](C(N)=O)[C@@H](C)O)C(C)C` [compound 32] (H-H[Aib]QGTFTSDYSKYLDARAAQ[Phe(4-CH2NH2)]([AEEA-AEEA-γGlu-C18 diacid])FVQWLLDT-NH2; N-terminus assumed), in assay [1], the EC50 was determined as 0.07 nM and the “hGCGR/hGLP1R (hTone)” value is given as 2.52. Further, the EC50 in assay [2] turned out to be 0.028 nM.

In the case of `CC(C)C[C@H](NC(=O)[C@H](Cc1ccc(O)cc1)NC(=O)[C@H](CCCCN)NC(=O)[C@H](CO)NC(=O)[C@H](Cc1ccc(O)cc1)NC(=O)[C@H](CC(=O)O)NC(=O)[C@H](CO)NC(=O)[C@@H](NC(=O)[C@H](Cc1ccccc1)NC(=O)[C@@H](NC(=O)CNC(=O)[C@H](CCC(N)=O)NC(=O)C(C)(C)NC(=O)[C@@H](N)Cc1c[nH]cn1)[C@@H](C)O)[C@@H](C)O)C(=O)N[C@@H](CC(=O)O)C(=O)N[C@@H](C)C(=O)N[C@@H](CCCNC(=N)N)C(=O)N[C@@H](C)C(=O)N[C@@H](C)C(=O)N[C@@H](Cc1ccc(CNC(=O)COCCOCCNC(=O)COCCOCCNC(=O)CC[C@H](NC(=O)CCCCCCCCCCCCCCCCC(=O)O)C(=O)O)cc1)C(=O)N[C@@H](CC(=O)O)C(=O)N[C@@H](Cc1ccccc1)C(=O)N[C@H](C(=O)N[C@@H](CCC(N)=O)C(=O)N[C@@H](Cc1c[nH]c2ccccc12)C(=O)N[C@@H](CC(C)C)C(=O)N[C@@H](CC(C)C)C(=O)N[C@@H](CC(=O)O)C(=O)N[C@H](C(N)=O)[C@@H](C)O)C(C)C` [compound 31] (H-H[Aib]QGTFTSDYSKYLDARAA[Phe(4-CH2NH2)]([AEEA-AEEA-γGlu-C18 diacid])DFVQWLLDT-NH2), in assay [1], the EC50 stood at 0.26 nM and the “hGCGR/hGLP1R (hTone)” value is given as 0.70. In assay [2], this compound had an EC50 of 0.37 nM.

On to `CC(C)C[C@H](NC(=O)[C@H](Cc1ccc(O)cc1)NC(=O)[C@H](CCCCN)NC(=O)[C@H](CO)NC(=O)[C@H](Cc1ccc(O)cc1)NC(=O)[C@H](CC(=O)O)NC(=O)[C@H](CO)NC(=O)[C@@H](NC(=O)[C@H](Cc1ccccc1)NC(=O)[C@@H](NC(=O)CNC(=O)[C@H](CCC(N)=O)NC(=O)[C@@H](CO)NC(=O)[C@@H](N)Cc1c[nH]cn1)[C@@H](C)O)[C@@H](C)O)C(=O)N[C@@H](CC(=O)O)C(=O)N[C@@H](C)C(=O)N[C@@H](CCCNC(=N)N)C(=O)N[C@@H](C)C(=O)N[C@@H](C)C(=O)N[C@@H](CCC(N)=O)C(=O)N[C@@H](CCCCNC(=O)COCCOCCNC(=O)COCCOCCNC(=O)CC[C@H](NC(=O)CCCCCCCCCCCCCCC(=O)O)C(=O)O)C(=O)N[C@@H](Cc1ccccc1)C(=O)N[C@H](C(=O)N[C@@H](CCC(N)=O)C(=O)N[C@@H](Cc1c[nH]c2ccccc12)C(=O)N[C@@H](CC(C)C)C(=O)N[C@@H](CC(C)C)C(=O)N[C@@H](CC(=O)O)C(=O)N[C@H](C(N)=O)[C@@H](C)O)C(C)C` [compound 3] (H-H[dS]QGTFTSDYSKYLDARAAQK([AEEA-AEEA-γGlu-C16 diacid])FVQWLLDT-NH2), for which, in assay [1], the EC50 turned out to be 0.05 nM and the “hGCGR/hGLP1R (hTone)” value stood at 0.23. This compound also returned a concentration for a half-maximal effect (EC50) in assay [2] of 0.2 nM.

In the case of `CC(C)C[C@H](NC(=O)[C@H](Cc1ccc(O)cc1)NC(=O)[C@H](Cc1ccc(CNC(=O)COCCOCCNC(=O)COCCOCCNC(=O)CC[C@H](NC(=O)CCCCCCCCCCCCCCC(=O)O)C(=O)O)cc1)NC(=O)[C@H](CO)NC(=O)[C@H](Cc1ccc(O)cc1)NC(=O)[C@H](CC(=O)O)NC(=O)[C@H](CO)NC(=O)[C@@H](NC(=O)[C@H](Cc1ccccc1)NC(=O)[C@@H](NC(=O)CNC(=O)[C@H](CCC(N)=O)NC(=O)[C@@H](CO)NC(=O)[C@@H](N)Cc1c[nH]cn1)[C@@H](C)O)[C@@H](C)O)C(=O)N[C@@H](CC(=O)O)C(=O)N[C@@H](CCC(=O)O)C(=O)N[C@@H](CCCNC(=N)N)C(=O)N[C@@H](C)C(=O)N[C@@H](C)C(=O)N[C@@H](CCC(N)=O)C(=O)N[C@@H](CC(=O)O)C(=O)N[C@@H](Cc1ccccc1)C(=O)N[C@H](C(=O)N[C@@H](CCC(N)=O)C(=O)N[C@@H](Cc1c[nH]c2ccccc12)C(=O)N[C@@H](CC(C)C)C(=O)N[C@@H](CCS(C)(=O)=O)C(=O)N[C@@H](CC(=O)O)C(=O)N[C@H](C(N)=O)[C@@H](C)O)C(C)C` [compound 24] (H-H[dS]QGTFTSDYS[Phe(4-CH2NH2)]([AEEA-AEEA-γGlu-C16 diacid])YLDERAAQDFVQWL[Met(O2)]DT-NH2; N-terminus assumed), in assay [1], the EC50 is 0.78 nM and the “hGCGR/hGLP1R (hTone)” value amounted to 4.76. This compound also showed an EC50 in assay [2] of 0.37 nM.

Turning to `CC(C)C[C@H](NC(=O)[C@H](CC(C)C)NC(=O)[C@H](CCCCN)NC(=O)[C@H](CO)NC(=O)[C@H](Cc1ccc(O)cc1)NC(=O)[C@H](CC(=O)O)NC(=O)[C@H](CO)NC(=O)[C@@H](NC(=O)[C@H](Cc1ccccc1)NC(=O)[C@@H](NC(=O)CNC(=O)[C@H](CCC(N)=O)NC(=O)C(C)(C)NC(=O)[C@@H](N)Cc1c[nH]cn1)[C@@H](C)O)[C@@H](C)O)C(=O)N[C@@H](CC(=O)O)C(=O)N[C@@H](C)C(=O)N[C@@H](CCCNC(=N)N)C(=O)N[C@@H](C)C(=O)N[C@@H](C)C(=O)N[C@@H](CCCCNC(=O)COCCOCCNC(=O)COCCOCCNC(=O)CC[C@H](NC(=O)CCCCCCCCCCCCCCCCC(=O)O)C(=O)O)C(=O)N[C@@H](CC(=O)O)C(=O)N[C@@H](Cc1ccccc1)C(=O)N[C@H](C(=O)N[C@@H](CCC(N)=O)C(=O)N[C@@H](Cc1c[nH]c2ccccc12)C(=O)N[C@@H](CC(C)C)C(=O)N[C@@H](CCS(C)(=O)=O)C(=O)N[C@@](C)(CC(=O)O)C(=O)N[C@H](C(N)=O)[C@@H](C)O)C(C)C` [compound 79] (H-H[Aib]QGTFTSDYSKLLDARAAK([AEEA-AEEA-γGlu-C18 diacid])DFVQWL[Met(O2)][αMeD]T-NH2), in assay [1], the EC50 amounted to 0.69 nM and the “hGCGR/hGLP1R (hTone)” value was found to be 0.8. The EC50 in assay [2] worked out at 0.84 nM.

As to `CC(C)C[C@H](NC(=O)[C@H](Cc1c[nH]c2ccccc12)NC(=O)[C@H](CCC(N)=O)NC(=O)[C@@H](NC(=O)[C@H](Cc1ccccc1)NC(=O)[C@H](CC(=O)O)NC(=O)[C@H](CCC(N)=O)NC(=O)[C@H](C)NC(=O)[C@H](C)NC(=O)[C@H](CCCNC(=N)N)NC(=O)C(C)(C)NC(=O)[C@H](CC(=O)O)NC(=O)[C@H](CC(C)C)NC(=O)[C@H](Cc1ccc(O)cc1)NC(=O)[C@H](CCCCN)NC(=O)[C@H](CO)NC(=O)[C@H](CCCCNC(=O)COCCOCCNC(=O)COCCOCCNC(=O)CC[C@H](NC(=O)CCCCCCCCCCCCCCCCC(=O)O)C(=O)O)NC(=O)[C@H](CC(=O)O)NC(=O)[C@H](CO)NC(=O)[C@@H](NC(=O)[C@H](Cc1ccccc1)NC(=O)[C@@H](NC(=O)CNC(=O)[C@H](CCC(N)=O)NC(=O)C(C)(C)NC(=O)[C@@H](N)Cc1c[nH]cn1)[C@@H](C)O)[C@@H](C)O)C(C)C)C(=O)N[C@@H](CCS(C)(=O)=O)C(=O)N[C@@H](CC(=O)O)C(=O)N[C@H](C(N)=O)[C@@H](C)O` [compound 4] (H-H[Aib]QGTFTSDK([AEEA-AEEA-γGlu-C18 diacid])SKYLD[Aib]RAAQDFVQWL[Met(O2)]DT-NH2; N-terminus assumed), in assay [1], the EC50 was 1.42 nM and the “hGCGR/hGLP1R (hTone)” value was 5.36. Further, the EC50 in assay [2] is 0.27 nM.

As to `CC(C)C[C@H](NC(=O)[C@H](Cc1ccc(O)cc1)NC(=O)[C@H](CCCCN)NC(=O)[C@H](CO)NC(=O)[C@H](Cc1ccc(O)cc1)NC(=O)[C@H](CC(=O)O)NC(=O)[C@H](CO)NC(=O)[C@@H](NC(=O)[C@H](Cc1ccccc1)NC(=O)[C@@H](NC(=O)CNC(=O)[C@H](CCC(N)=O)NC(=O)C(C)(C)NC(=O)[C@@H](N)Cc1c[nH]cn1)[C@@H](C)O)[C@@H](C)O)C(=O)N[C@@H](CC(=O)O)C(=O)N[C@@H](C)C(=O)N[C@@H](CCCNC(=N)N)C(=O)N[C@@H](C)C(=O)N[C@@H](C)C(=O)N[C@@H](CCCCNC(=O)COCCOCCNC(=O)COCCOCCNC(=O)CC[C@H](NC(=O)CCCCCCCCCCCCCCC(=O)O)C(=O)O)C(=O)N[C@@H](CC(=O)O)C(=O)N[C@@H](Cc1ccccc1)C(=O)N[C@H](C(=O)N[C@@H](CCC(N)=O)C(=O)N[C@@H](Cc1c[nH]c2ccccc12)C(=O)N[C@@H](CC(C)C)C(=O)N[C@@H](CCS(C)(=O)=O)C(=O)N[C@@H](CC(=O)O)C(=O)N[C@H](C(N)=O)[C@@H](C)O)C(C)C` [compound 19] (H-H[Aib]QGTFTSDYSKYLDARAAK([AEEA-AEEA-γGlu-C16 diacid])DFVQWL[Met(O2)]DT-NH2), in assay [1], the EC50 was 0.08 nM and the “hGCGR/hGLP1R (hTone)” value is 2.15. The midpoint of the response in assay [2], the EC50, lay at 0.04 nM.
